# Columns and labels:
# [1] = test system: Diamondback Moth (Plutella xylostella); test: Insecticidal test on diamondback moth (Plutella xylostella); type: in vivo; conditions: 144 h, cabbage leaf immersed, second-instar larvae, counted 6 days after release, 25° C.
# Procedure: Insecticidal Test on Diamondback Moth (Plutella xylostella)
# (§1) A piece of cabbage leaf was immersed for 30 seconds in a liquid chemical prepared by diluting a test compound to a prescribed concentration. After air-drying, the piece was put into a 7-cm polyethylene cup and second-instar larvae of diamondback moths were released thereinto. The polyethylene cups were set in an isothermal chamber thermostated at 25° C. From the release 6 days later, the dead and alive were counted. The test was carried out with two replications of 5 insects per a plot.
# [2] = test system: Common Cutworm (Spodoptera litura); test: Insecticidal test on common cutworm (Spodoptera litura); type: in vivo; conditions: 144 h, cabbage leaf immersed, second-instar larvae, counted 6 days after release, 25° C.
# Procedure: Insecticidal Test on Common Cutworm (Spodoptera litura)
# as §1, with “common cutworms” for “diamondback moths”
Compound,mortality at 100 ppm [1] [%],mortality at 100 ppm [2] [%]
"Cc1cc(OS(=O)(=O)C(F)(F)F)cc(Br)c1NC(=O)c1cccc(NC(=O)c2ccccc2)c1 [Compound No. 1-369, N-(2-bromo-6-methyl-4-trifluoromethanesulfonyloxyphenyl) 3-(benzoylamino)benzamide]",≥ 70,≥ 70
"O=C(Nc1cccc(C(=O)Nc2ccc(OC(C(F)(F)F)C(F)(F)F)nc2Br)c1)c1ccccc1 [Compound No. 1-387, N-[2-bromo-6-(2,2,2-trifluoro-1-trifluoromethylethoxy)-pyridin-3-yl]3-(benzoylamino)benzamide]",≥ 70,≥ 70
"O=C(Nc1cccc(C(=O)Nc2ccc3ncsc3c2)c1)c1ccccc1 [Compound No. 1-492, N-benzothiazol-6-yl 3-(benzoylamino)benzamide]",,≥ 70
"O=C(Nc1c(Br)cc(OC(F)(F)C(F)C(F)(F)F)cc1Br)c1cccc(NC(=O)c2ccccc2F)c1 (stereo not drawn) [Compound No. 2-8, N-(2,6-dibromo-4-(1,1,2,3,3,3-hexafluoropropoxy)phenyl) 3-[(2-fluorobenzoyl)amino]benzamide]",≥ 70,≥ 70
"Cc1cc(C(F)(C(F)(F)F)C(F)(F)F)cc(C)c1NC(=O)c1cccc(Nc2ccc([N+](=O)[O-])cc2)c1 [Compound No. 5-9, N-[2,6-dimethyl-4-(heptafluoroisopropyl)phenyl]-3-(4-nitrophenylamino)-benzamide]",≥ 70,≥ 70

# From patent publication US8067638B2, “Amide derivative and insecticide containing the same” (Mitsui Chemicals, Inc., priority 2005, dated 2011)
